Where a SMILES comes first, the peptide text is derived from it. The star is where a group is joined. 5FAM = O=C1OC2(c3ccc(O)cc3Oc3cc(O)ccc32)c2ccc(C(=O)*)cc21
Assays:
RyR = experiment: Pilot FLT-FRET screen of NIH Clinical Collection 1 with D-FKBP and A-CaM near their Kd; type: binding; settings: preliminary screen
From the text: The optimal concentration of A-CaM may vary from sarcoplasmic reticulum to cell samples, but using a concentration of A-CaM that is at or near its Kd will allow detection of enhanced CaM binding by FRET assays. Compounds that modulate CaM binding are expected to also affect RyR channel function, which can optionally be determined in secondary functional assays. […] A pilot screen of NIH Clinical Collection 1 used donor labeled FKBP and acceptor labeled CaM near their Kd.
Using the method illustrated in FIGS. 3 and 4, a preliminary screen of NIH Clinical Collection 1 (NCC1, 446 compounds) was conducted. The concentrations of A-CaM and D-FKBP were near their Kd. […] In FIG. 36, we represented the effect of compounds on FRET as E(compound)/E(control) (E/E0). Values outside the 3SD threshold (dotted line) are considered hits. Increased FRET (E/E0>1) indicates increased FKBP and/or CaM binding; decreased FRET (E/E0<1) indicates decreased FKBP and/or CaM binding.

RyR2 [1] = target: T1, RyR2 (Rattus norvegicus, UniProt B0LPN4); experiment: Steady-state F-DPc10 binding at the Z-line of saponin-permeabilized myocytes (confocal); design: endogenous in cells; host or cells: saponin-permeabilized adult rat ventricular myocytes; settings: in-cell binding isotherm, [Ca2+]i 50 nmol/L
Procedure: Rat ventricular myocytes were isolated and permeabilized as previously described (Li et al., Circ Res, 2002; 90:309-316). All procedures were performed according to the Guiding Principles in the Care and Use of the Animals and were approved by the Council of American Physiological Society. DPc10, FKBP12.6, and CaM were labeled at specific sites with small fluorescence probes, similar to our previous studies (Guo et al., Circ Res, 2010; 106:1743-1752; Cornea et al., PNAS USA, 2009; 106:6128-6133; Guo et al., Biophys J, 2011; 101:2170-2177).
Confocal images was measured using a Biorad RADIANCE2100™ laser scanning confocal microscope equipped with an Argon ion laser, Green HeNe laser and with a Nikon Fluo x40 oil lens. FRET (fluorescence resonance energy transfer) experiments between CaM and DPc10, and FKBP12.6 and DPc10 were performed using an Olympus FV1000 confocal microscope. All experiments were done at room temperature.
Myocytes were exposed to […] F-DPc10, with intracellular [Ca^2+] ([Ca^2+]i) set at 50 nmol/L. F-DPc10 fluorescence is highest at the Z-lines, where RyR2 is concentrated, forming a typical cross-striated pattern. The difference between fluorescence intensity at the Z-line (Fz) and M-line (FM) is taken to represent [F-DPc10] specifically bound at the myocyte Z-line. We calibrated the bound [F-DPc10] in permeabilized myocytes using the linear relationship between F-DPc10 fluorescence and bath [F-DPc10] (FIG. 7B). […] To further test whether this Z-line-associated F-DPc10 represents RyR2-bound F-DPc10, we measured FRET between FKBP12.6 (known to specifically bind to RyR2 with subnanomolar affinity) (Guo et al., Circ Res, 2010; 106:1743-1752) and F-DPc10. […] Donor (AF568-FKBP12.6) fluorescence at the Z-line was quenched by HF647-DPc10, but the M-line signal was not (FIG. 9B). […]
Target sequence in this assay (B0LPN4 whole entry): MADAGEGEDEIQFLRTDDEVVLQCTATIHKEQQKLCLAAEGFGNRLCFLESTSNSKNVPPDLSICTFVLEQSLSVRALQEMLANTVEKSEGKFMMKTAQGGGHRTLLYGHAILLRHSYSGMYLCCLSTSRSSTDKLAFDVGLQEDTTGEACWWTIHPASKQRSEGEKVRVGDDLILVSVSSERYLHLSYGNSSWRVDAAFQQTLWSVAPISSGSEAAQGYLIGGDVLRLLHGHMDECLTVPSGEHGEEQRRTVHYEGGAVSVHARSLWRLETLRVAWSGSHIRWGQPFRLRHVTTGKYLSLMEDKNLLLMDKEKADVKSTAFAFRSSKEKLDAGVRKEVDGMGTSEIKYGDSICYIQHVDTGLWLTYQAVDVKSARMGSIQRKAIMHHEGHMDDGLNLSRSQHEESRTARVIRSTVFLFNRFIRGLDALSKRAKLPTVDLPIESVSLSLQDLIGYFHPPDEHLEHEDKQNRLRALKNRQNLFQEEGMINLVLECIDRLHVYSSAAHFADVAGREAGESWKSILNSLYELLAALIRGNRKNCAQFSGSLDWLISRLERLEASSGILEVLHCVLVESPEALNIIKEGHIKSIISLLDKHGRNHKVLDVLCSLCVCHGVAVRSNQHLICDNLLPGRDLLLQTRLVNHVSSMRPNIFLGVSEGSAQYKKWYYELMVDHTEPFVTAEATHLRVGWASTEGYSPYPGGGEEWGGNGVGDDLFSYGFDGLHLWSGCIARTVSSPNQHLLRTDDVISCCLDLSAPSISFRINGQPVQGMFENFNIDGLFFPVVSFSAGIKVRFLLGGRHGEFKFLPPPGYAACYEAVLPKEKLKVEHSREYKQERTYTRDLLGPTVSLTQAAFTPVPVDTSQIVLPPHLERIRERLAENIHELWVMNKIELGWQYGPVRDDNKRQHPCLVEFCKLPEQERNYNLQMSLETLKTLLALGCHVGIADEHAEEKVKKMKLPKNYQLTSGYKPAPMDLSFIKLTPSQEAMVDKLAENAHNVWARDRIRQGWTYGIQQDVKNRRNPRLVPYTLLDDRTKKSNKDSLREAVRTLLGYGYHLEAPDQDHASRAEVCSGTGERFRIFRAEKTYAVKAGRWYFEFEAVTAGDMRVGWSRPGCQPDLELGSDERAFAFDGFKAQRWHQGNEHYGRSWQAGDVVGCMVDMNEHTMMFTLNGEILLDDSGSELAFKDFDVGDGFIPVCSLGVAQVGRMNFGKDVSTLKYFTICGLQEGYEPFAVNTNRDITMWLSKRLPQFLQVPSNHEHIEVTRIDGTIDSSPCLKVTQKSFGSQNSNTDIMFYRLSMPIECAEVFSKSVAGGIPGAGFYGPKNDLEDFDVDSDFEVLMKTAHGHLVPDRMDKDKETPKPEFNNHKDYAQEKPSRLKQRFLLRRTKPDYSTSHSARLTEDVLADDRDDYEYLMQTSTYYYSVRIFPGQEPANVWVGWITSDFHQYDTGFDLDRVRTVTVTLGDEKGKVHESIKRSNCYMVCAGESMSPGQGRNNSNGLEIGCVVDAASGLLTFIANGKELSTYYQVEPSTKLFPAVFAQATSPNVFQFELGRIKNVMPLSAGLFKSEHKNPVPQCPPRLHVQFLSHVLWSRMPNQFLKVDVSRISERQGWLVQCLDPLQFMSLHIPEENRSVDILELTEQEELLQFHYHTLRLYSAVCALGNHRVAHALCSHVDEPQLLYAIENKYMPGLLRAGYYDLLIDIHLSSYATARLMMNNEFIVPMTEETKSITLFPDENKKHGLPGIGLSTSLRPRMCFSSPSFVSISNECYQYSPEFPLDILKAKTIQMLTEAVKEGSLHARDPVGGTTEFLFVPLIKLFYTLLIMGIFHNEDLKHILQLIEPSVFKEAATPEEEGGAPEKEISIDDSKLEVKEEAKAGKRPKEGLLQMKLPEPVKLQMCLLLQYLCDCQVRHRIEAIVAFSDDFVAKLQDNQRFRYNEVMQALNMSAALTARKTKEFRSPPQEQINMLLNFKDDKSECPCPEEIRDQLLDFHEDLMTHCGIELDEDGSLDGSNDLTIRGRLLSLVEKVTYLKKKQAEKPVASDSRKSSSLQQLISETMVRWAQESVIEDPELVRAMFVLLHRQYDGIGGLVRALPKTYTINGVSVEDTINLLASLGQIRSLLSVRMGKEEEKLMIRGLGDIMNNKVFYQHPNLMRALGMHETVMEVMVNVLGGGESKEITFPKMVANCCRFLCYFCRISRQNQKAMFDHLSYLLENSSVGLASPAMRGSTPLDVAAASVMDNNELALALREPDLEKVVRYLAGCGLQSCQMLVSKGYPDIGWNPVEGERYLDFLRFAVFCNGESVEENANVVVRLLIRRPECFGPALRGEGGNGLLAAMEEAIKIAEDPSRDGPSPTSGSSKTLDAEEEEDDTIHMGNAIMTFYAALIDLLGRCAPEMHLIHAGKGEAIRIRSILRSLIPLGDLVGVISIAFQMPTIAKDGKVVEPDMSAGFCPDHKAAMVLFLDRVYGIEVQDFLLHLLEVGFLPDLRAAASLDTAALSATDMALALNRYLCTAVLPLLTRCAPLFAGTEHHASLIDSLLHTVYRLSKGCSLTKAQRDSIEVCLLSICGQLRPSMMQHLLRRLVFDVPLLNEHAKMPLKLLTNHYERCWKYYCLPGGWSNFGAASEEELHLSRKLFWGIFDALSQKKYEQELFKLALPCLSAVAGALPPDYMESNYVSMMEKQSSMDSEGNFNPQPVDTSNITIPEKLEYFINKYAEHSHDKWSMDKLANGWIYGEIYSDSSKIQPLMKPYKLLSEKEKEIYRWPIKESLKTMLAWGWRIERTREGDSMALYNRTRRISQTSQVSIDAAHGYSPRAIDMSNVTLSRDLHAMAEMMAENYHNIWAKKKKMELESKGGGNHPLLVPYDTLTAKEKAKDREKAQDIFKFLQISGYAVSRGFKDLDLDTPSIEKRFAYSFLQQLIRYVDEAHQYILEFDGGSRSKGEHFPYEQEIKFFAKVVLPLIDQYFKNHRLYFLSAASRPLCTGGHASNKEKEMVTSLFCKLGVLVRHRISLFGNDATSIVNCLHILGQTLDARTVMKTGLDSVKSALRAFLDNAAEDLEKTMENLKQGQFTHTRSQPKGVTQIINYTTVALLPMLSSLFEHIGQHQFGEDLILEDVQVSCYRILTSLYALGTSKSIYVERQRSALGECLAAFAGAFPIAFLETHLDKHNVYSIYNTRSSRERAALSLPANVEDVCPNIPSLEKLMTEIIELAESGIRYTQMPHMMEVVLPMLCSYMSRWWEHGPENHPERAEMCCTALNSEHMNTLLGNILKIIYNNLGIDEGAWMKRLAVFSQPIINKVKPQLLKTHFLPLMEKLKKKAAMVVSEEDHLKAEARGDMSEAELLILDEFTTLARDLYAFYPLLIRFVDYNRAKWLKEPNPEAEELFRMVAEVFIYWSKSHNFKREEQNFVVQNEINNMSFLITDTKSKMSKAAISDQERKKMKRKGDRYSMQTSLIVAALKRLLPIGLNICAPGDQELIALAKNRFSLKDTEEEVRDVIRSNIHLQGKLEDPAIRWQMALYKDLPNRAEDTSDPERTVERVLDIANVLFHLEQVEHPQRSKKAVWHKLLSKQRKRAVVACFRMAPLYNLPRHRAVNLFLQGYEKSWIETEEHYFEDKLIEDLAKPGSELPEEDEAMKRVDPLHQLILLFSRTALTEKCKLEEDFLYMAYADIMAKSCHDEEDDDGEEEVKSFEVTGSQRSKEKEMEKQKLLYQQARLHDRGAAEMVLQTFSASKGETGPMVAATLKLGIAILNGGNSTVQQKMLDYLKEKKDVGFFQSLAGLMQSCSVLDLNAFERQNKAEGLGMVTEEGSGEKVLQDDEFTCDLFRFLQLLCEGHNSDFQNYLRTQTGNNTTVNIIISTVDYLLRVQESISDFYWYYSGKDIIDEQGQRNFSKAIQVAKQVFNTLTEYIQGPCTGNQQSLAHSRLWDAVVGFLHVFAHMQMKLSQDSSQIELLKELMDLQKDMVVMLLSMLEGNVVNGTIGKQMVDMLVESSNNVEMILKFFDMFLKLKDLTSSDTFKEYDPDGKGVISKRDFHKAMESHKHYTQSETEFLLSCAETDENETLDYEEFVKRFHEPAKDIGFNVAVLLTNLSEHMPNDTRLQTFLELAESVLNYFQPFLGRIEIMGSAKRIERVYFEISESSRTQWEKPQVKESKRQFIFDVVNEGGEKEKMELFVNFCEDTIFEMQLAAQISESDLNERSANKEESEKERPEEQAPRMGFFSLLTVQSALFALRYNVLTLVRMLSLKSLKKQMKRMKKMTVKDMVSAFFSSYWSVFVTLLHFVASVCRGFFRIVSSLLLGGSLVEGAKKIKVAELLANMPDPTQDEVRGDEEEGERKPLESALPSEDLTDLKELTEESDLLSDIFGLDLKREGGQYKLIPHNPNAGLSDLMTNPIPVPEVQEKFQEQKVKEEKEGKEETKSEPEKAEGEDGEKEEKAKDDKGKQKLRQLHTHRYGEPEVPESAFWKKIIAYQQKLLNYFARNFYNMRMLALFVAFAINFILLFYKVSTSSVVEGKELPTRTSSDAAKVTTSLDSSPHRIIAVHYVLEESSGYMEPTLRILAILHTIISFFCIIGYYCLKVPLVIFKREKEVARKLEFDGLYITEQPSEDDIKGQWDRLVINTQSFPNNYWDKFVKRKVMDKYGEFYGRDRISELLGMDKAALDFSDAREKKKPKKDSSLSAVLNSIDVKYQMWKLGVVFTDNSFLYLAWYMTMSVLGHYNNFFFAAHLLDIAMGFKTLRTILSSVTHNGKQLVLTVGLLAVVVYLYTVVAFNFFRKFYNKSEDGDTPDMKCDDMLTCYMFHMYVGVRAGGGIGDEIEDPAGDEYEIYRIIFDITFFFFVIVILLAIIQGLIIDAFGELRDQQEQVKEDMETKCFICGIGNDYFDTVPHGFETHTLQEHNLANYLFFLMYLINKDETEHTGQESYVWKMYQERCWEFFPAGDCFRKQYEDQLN

RyR2 [2] = target: T1, RyR2; experiment: F-DPc10 wash-in and washout kinetics at the myocyte Z-line; type: binding; design: endogenous in cells; host or cells: saponin-permeabilized adult rat ventricular myocytes
Procedure: To characterize DPc10-binding kinetics at Z-lines, we performed F-DPc10 wash-in (500 nmol/L) and washout experiments in permeabilized myocytes (FIG. 10A). Association (τwash-in=79.0±3.2 minutes) and dissociation (τwashout=149.8±4.4 minutes) were very slow compared with similar FKBP12.6 measurements (Guo et al., Circ Res, 2010; 106:1743-1752). From the wash-in/washout measurements, we calculated the association and dissociation rates constants, kon and koff, respectively, according to the following equation: kwash-in=[F-DPc10]kon+koff where kwashout≈koff and k=1/τ (s^−1). Accordingly, kon=202±20 (L mol^−1 s^−1) and koff=0.11±0.01 (10^−3 s^−1). […] We repeated this kinetic analysis using FRET between FKBP12.6 and DPc10, thus assessing the RyR2-specific DPc10 binding (FIG. 11A AND 11B). […] Based on these kinetic and affinity analyses, we infer that most of the Z-line-specific DPc10 binding is to RyR2. This is also consistent with Bmax, which would imply ≈1 DPc10 per RyR2 monomer.
We were intrigued by the slow kwash-in and conducted measurements to further understand the basis of this slow association. We tested the hypothesis that at resting [Ca^2+]i, DPc10 access to its RyR2 binding site is sterically hindered. If the N-terminal and central domains are tightly zipped to each other, then this interaction may occlude the DPc10-binding site on the RyR2, thus limiting the kon for DPc10. Alternatively, a limiting factor may be the rate at which DPc10 adopts a conformation that can bind to RyR2. To discern between these mechanisms, we determined the effect of [F-DPc10] on τwash-in. If the small fraction of DPc10 in the right conformation limits binding rate, then τwash-in should be faster at higher [F-DPc10], according to Equation. […] Instead, a 10-fold increase in [F-DPc10] had no significant effect on the τwash-in, although it did increase Bmax (FIG. 10B). The same was seen when using FKBP12.6-DPc10 FRET to assess τwash-in with 0.5 vs 5 μmol/L HF647-DPc10 (FIG. 12A AND 12B).
In our working model, under resting conditions, the RyR2 closed state may be stabilized by the interaction between the N-terminal and central domain in the zipped state. We hypothesized that conditions that promote RyR2 opening might enhance the rate of unzipping and accelerate τwash-in for F-DPc10. To test this, we first monitored F-DPc10 wash-in at elevated Ca^2+ (500 nmol/L). However, the 13% faster mean τwash-in was not significant (FIG. 13A). […] Thus, we preincubated myocytes with ryanodine (100 μmol/L) plus caffeine ([…]), which are known to favor long RyR2 openings and were reported to cause RyR2 domain unzipping in HEK293 cells (Liu et al., J Cell Sci, 2010; 123: 1775-1784). Ryanodine+caffeine produced a 21% faster τwash-in (P=0.002; FIG. 13B). However, the most significant effect was seen after presaturating RyR2 with NF-DPc10 (and then NF-DPc10 washout with F-DPc10 present; FIG. 13A). […] Assuming that koff of NF-DPc10 is the same as for F-DPc10 and using Equation, the kon is increased by 3.2-fold by unzipping as a result of prebinding of NF-DPc10 to the RyR2. Our working hypothesis is that the RyR2 open state may increase the probability of an RyR2 shifting to the unzipped state and may allow faster F-DPc10 wash-in. It also seems that the RyR2 open state (favored by caffeine-ryanodine) differs from the unzipped state (bound with DPc10).
Both FKBP12.6 and CaM bind to the RyR2 and can reduce channel opening, which might alter DPc10 binding. […] Neither CaM nor FKBP12.6 pretreatment altered M-line F-DPc10 fluorescence (FIG. 15). […] We infer that CaM stabilizes the domain interaction between N-terminal and central domains in the zipped state and thereby may reduce DPc10 access to its binding site. To test for direct CaM-DPc10 interaction, we performed control FRET measurements between donor-labeled CaM and acceptor-labeled DPc10 in solution in the absence of RyR. The maximal FRET efficiency (<1%) ruled out direct CaM-DPc10 interaction. […]
Target sequence in this assay (B0LPN4 whole entry): as above

RyR2 [3] = target: T1, RyR2; experiment: HF647-DPc10 wash-in kinetics by FRET from F-FKBP (donor quench) in permeabilized myocytes; type: binding; design: These fluorescent proteins were added to saponin-permeabilized myocytes with or without pre-equilibration with saturating DPc10 concentration; endogenous in cells; host or cells: saponin-permeabilized rat ventricular myocytes; settings: myocytes
Procedure: The FRET pair we used in this consisted of ALEXA FLUOR™ 488 (donor) covalently attached to FKBP12.6 (F-FKBP) and HiLyte Fluor™647 (acceptor) covalently attached to DPc10 (F-DPc10).^8 To detect F-DPc10 specifically bound to RyR2, we measured donor fluorescence intensities through a 500-530 nm bandpass filter before and after equilibration with acceptor (donor quenching method). The FRET efficiency (E) was calculated according to: E=1-FDA/FD, Where FD and FDA are the fluorescence intensities of the donor-only and donor-plus-acceptor samples, respectively (Oda et al., Circ Res. 2013;112:487-497). Statistics
Next we tested whether RyR2 oxidation would increase HF647-DPc10 access. Here, we used FRET between F-FKBP as a donor and HF647-DPc10 as an acceptor, to detect DPc10 that specifically binds at RyR2 (Oda et al., Circ Res. 2013; 112:487-497).
Target sequence in this assay (B0LPN4 whole entry): as above
Target sequence in this assay (P68106 with tags, fused parts or gaps T15C/C23A/C77I partner): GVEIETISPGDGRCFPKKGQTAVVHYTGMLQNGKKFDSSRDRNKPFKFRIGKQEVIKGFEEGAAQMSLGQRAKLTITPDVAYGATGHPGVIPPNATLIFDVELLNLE

[4] = calculated from wash-in/washout

Compound: C=CC[C@@H]1/C=C(\C)C[C@H](C)C[C@H](OC)[C@H]2O[C@@](O)(C(=O)C(=O)N3CCCC[C@H]3C(=O)O[C@H](/C(C)=C/[C@@H]3CC[C@@H](O)[C@H](OC)C3)[C@H](C)[C@@H](O)CC1=O)[C@H](C)C[C@@H]2OC [Tacrolimus]
- effect on FRET, E(compound)/E(control); hit = outside the 3SD threshold (RyR): among the hits
- effect on FRET, E(compound)/E(control); hit = outside the 3SD threshold (RyR; listed as FK506): reducing FRET

Compound: Nc1nc(Cl)nc2c1ncn2[C@H]1C[C@H](O)[C@@H](CO)O1 [Cladribine]
- effect on FRET, E(compound)/E(control); hit = outside the 3SD threshold (RyR): hits

Compound: O=C1N(c2ccccc2)c2ccccc2C1(Cc1ccncc1)Cc1ccncc1 [Linopirdine]
- effect on FRET, E(compound)/E(control); hit = outside the 3SD threshold (RyR): hits

Compound: CC[C@H](C)[C@H](NC(=O)CNC(=O)[C@H](Cc1ccc(O)cc1)NC(=O)[C@@H](NC(=O)[C@H](CCCNC(=N)N)NC(=O)[C@H](CC(=O)O)NC(=O)[C@H](CC(C)C)NC(=O)[C@H](Cc1ccccc1)NC(=O)[C@H](CC(C)C)NC(=O)[C@@H](NC(=O)[C@H](CCSC)NC(=O)[C@H](C)NC(=O)[C@H](C)NC(=O)[C@H](CCCCN)NC(=O)[C@H](Cc1c[nH]cn1)NC(=O)[C@H](CC(=O)O)NC(=O)[C@@H]1CCCN1C(=O)[C@H](CS)NC(=O)[C@H](Cc1ccccc1)NC(=O)CNC(=O)c1ccc2c(c1)C(=O)OC21c2ccc(O)cc2Oc2cc(O)ccc21)C(C)C)C(C)C)C(=O)N[C@@H](CCC(=O)O)C(=O)N[C@H](C(=O)N[C@@H](CCC(N)=O)C(=O)N[C@@H](CC(=O)O)C(=O)N[C@@H](Cc1ccccc1)C(=O)N[C@@H](CC(C)C)C(=O)N[C@@H](CC(C)C)C(=O)N[C@@H](Cc1c[nH]cn1)C(=O)N[C@@H](CC(C)C)C(=O)N[C@@H](CC(C)C)C(=O)N[C@@H](CCC(=O)O)C(=O)N[C@H](C(=O)NCC(=O)N[C@@H](Cc1ccccc1)C(=O)N[C@@H](CC(C)C)C(=O)N1CCC[C@H]1C(=O)O)C(C)C)C(C)C [F-DPc10] (5FAM-GFCPDHKAAMVLFLDRVYGIEVQDFLLHLLEVGFLP-OH)
- maximal binding (Bmax), concentration of F-DPc10-binding sites (RyR2 [1]): 1.59±0.03 μmon
- association τwash-in (RyR2 [2]; F-DPc10 500 nmol/L): 79.0 ± 3.2 min
- dissociation τwashout (RyR2 [2]; F-DPc10 500 nmol/L): 149.8 ± 4.4 min
- koff (RyR2 [2]; [4]): 0.00011 ± 1e-05 s⁻¹
- kon (RyR2 [2]; [4]): 202 ± 20 M⁻¹ s⁻¹
- kon slower than that measured for FKBP12.6 (RyR2 [2]; similar conditions): ≈ 1800 fold
- τwash-in in controls (RyR2 [3]): ~80 min

Compound: NC(=O)c1cccnc1 [Nicotinamide]
- effect on FRET, E(compound)/E(control); hit = outside the 3SD threshold (RyR): hits

From US10281476B2, “Methods to identify modulators of RyR calcium channels” (REGENTS OF THE UNIVERSITY OF MINNESOTA, priority 2013, dated 2019)
